The results in this text go back to ChEMBL document CHEMBL4813995, “Synthesis and anti-trypanosomal activity of 3'-fluororibonucleosides derived from 7-deazapurine nucleosides” (Bioorg Med Chem Lett, 2021).

One series relates to NHDF. As to the kind of experiment: Cytotoxicity against human NHDF cells assessed as reduction in cell viability by XTT assay. The format is cell-based.
For the next series, the system named is HL-60. Briefly: Cytotoxicity against human HL-60 cells assessed as reduction in cell viability by XTT assay. The format is functional, cell-based.
For a further series, the system named is CCRF-CEM. As to the kind of experiment: Cytotoxicity against human CCRF-CEM cells assessed as reduction in cell viability by XTT assay. The format is functional, cell-based.
The subject of the next series is HeLa S3. As to the kind of experiment: Cytotoxicity against human HeLa S3 cells assessed as reduction in cell viability by XTT assay. The format is functional, cell-based.
The test system of another series is HepG2. As to the kind of experiment: Cytotoxicity against human HepG2 cells assessed as reduction in cell viability by XTT assay. The series is classed as functional, cell-based.
A short description of series [1]: Selective index, ratio of IC50 for human NHDF cells to EC50 for Trypanosoma brucei brucei. The format is toxicity. As to conditions: read-out: Ratio IC50/EC50.
Series [2] has as its system Trypanosoma brucei brucei. Briefly: Antitrypanosomal activity against Trypanosoma brucei brucei by drug sensitivity assay. The series is classed as functional, organism-based.
Series [3] in a line: Selective index, ratio of IC50 for human NHDF cells to EC50 for Trypanosoma brucei gambiense. The format is toxicity. The note with it: read-out: Ratio IC50/EC50.
The test system of series [4] is Trypanosoma brucei gambiense. Briefly: Antitrypanosomal activity against Trypanosoma brucei gambiense by drug sensitivity assay. The format is functional, organism-based.

In the case of `Nc1ncnc2c1ccn2[C@@H]1O[C@H](CO)[C@@H](F)[C@H]1O`, the half-maximal inhibitory concentration (IC50) in the series on NHDF, in the series on HL-60, in the series with CCRF-CEM, in the series with HeLa S3 and in the series with HepG2 was over 10 µM in each case. For the same molecule, the selectivity ratio in series [1] is over 1.7. In [2], this molecule showed a half-maximal effective concentration (EC50) of 6 µM.

On to `Nc1ncnc2c1c(I)cn2[C@@H]1O[C@H](CO)[C@@H](F)[C@H]1O`, for which the selectivity ratio in series [3] is over 455; in [1], over 666. In addition, the 50% inhibitory concentration (IC50) in the series on NHDF was over 10 µM; with HL-60 it was 1.13 µM; in the series on CCRF-CEM it was 4.5 µM; in the series with HeLa S3, 6.3 µM; in the series with HepG2 it was 1.1 µM. Moreover, the values for the EC50 in series [4] and in series [2] were 0.022 µM and 0.015 µM, respectively.

Regarding `Nc1ncnc2c1c(-c1cccs1)cn2[C@@H]1O[C@H](CO)[C@@H](F)[C@H]1O`, the IC50 in the series with NHDF, with HL-60, in the series with CCRF-CEM, with HeLa S3 and in the series with HepG2 was over 10 µM throughout. Moreover, the selectivity ratio in series [1] is over 2. Besides, the EC50 in [2] was 4.92 µM.

For the molecule `Nc1ncnc2c1c(-c1ccco1)cn2[C@@H]1O[C@H](CO)[C@@H](F)[C@H]1O`, the half-maximal inhibitory concentration (IC50) with NHDF, in the series on HL-60, in the series with CCRF-CEM, with HeLa S3 and in the series on HepG2 was over 10 µM each time. For the same molecule, the selectivity ratio in series [1] was over 6. In series [2], this molecule showed a concentration for a half-maximal effect (EC50) of 1.59 µM.

`Nc1ncnc2c1c(-c1ccc(Cl)cc1)cn2[C@@H]1O[C@H](CO)[C@@H](F)[C@H]1O`: the selectivity ratio in [3] is over 10; in series [1], over 20. The IC50 in the series with NHDF, with HL-60, in the series with CCRF-CEM, with HeLa S3 and with HepG2 was over 10 µM each time. Moreover, the EC50 worked out at 0.99 µM in series [4] and 0.49 µM in series [2].

Regarding `Nc1ncnc2c1c(Br)cn2[C@@H]1O[C@H](CO)[C@@H](F)[C@H]1O`, the selectivity ratio in series [3] was over 270; in series [1], over 208. The IC50 in the series with NHDF, in the series with HL-60, with CCRF-CEM, in the series with HeLa S3 and in the series on HepG2 was over 10 µM in each case. Also, the half-maximal effective concentration (EC50) stood at 0.037 µM in [4] and 0.048 µM in series [2].

As for `Nc1ncnc2c1c(-c1ccc3ccccc3c1)cn2[C@@H]1O[C@H](CO)[C@@H](F)[C@H]1O`, the IC50 with NHDF, in the series with HL-60, in the series on CCRF-CEM, in the series with HeLa S3 and in the series with HepG2 was over 10 µM each time. Moreover, the EC50 in series [2] is 16.2 µM.

Turning to `Nc1ncnc2c1c(-c1cccc3c1oc1ccccc13)cn2[C@@H]1O[C@H](CO)[C@@H](F)[C@H]1O`, the 50% inhibitory concentration (IC50) in the series on NHDF, in the series on HL-60, in the series with CCRF-CEM, in the series on HeLa S3 and with HepG2 was over 10 µM each time. For the same molecule, a half-maximal effect in series [2] (EC50) was put at 15.4 µM.
